Measurements taken from article PMC7782793, “Hydroxamic acid-modified peptide microarrays for profiling isozyme-selective interactions and inhibition of histone deacetylases” (Nature Communications, 2021).
“And” between values parts separate entries of the source, which are not always exact repeats. Equal entries are not always repeated. Marks after values point to notes of the source that are not given here. Non-standard residues stand in square brackets, D forms with d. Residues, ends and D or L forms follow the SMILES beside them. *: point of attachment. Asu = N[C@@H](CCCCCC(=O)O)C(=O)O; NHOH = ON*

Assays:
[1] = target: T1, HDAC8 (Homo sapiens, UniProt Q9BY41); assay: HDAC inhibition assay (fluorogenic, Ac-Leu-Gly-Lys(Tfa)-AMC); assay type: biochemical; conditions: duplicate columns
T1 construct: HDAC8 (full length, C-terminal His tag, BPS Bioscience, cat. #: 50008); purchased BPS Bioscience 50008
T1 sequence (Q9BY41 1-377): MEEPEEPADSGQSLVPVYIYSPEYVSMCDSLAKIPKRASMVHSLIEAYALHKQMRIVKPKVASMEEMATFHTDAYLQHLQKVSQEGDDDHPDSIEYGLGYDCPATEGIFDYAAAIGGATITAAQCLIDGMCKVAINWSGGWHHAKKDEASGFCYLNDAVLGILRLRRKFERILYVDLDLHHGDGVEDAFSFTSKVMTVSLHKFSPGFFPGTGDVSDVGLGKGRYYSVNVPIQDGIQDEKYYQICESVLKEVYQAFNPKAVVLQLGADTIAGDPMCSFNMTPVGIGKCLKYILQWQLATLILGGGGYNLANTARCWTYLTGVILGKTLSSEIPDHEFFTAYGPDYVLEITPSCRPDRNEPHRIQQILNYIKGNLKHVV

[2] = target: T2, HDAC3/NCoR2 (Homo sapiens, UniProt O15379); assay: HDAC inhibition assay (fluorogenic, Ac-Leu-Gly-Lys(Ac)-AMC); assay type: biochemical; conditions: for HDAC3 dose-response data (relative enzyme activity), Fig. 6 + S. Fig. 10: duplicate columns
T2 construct: HDAC3/NCoR2 (full length, C-terminal His tag, NCoR2 N-terminal GST tag); purchased BPS Bioscience 50003
T2 sequence (O15379 whole entry): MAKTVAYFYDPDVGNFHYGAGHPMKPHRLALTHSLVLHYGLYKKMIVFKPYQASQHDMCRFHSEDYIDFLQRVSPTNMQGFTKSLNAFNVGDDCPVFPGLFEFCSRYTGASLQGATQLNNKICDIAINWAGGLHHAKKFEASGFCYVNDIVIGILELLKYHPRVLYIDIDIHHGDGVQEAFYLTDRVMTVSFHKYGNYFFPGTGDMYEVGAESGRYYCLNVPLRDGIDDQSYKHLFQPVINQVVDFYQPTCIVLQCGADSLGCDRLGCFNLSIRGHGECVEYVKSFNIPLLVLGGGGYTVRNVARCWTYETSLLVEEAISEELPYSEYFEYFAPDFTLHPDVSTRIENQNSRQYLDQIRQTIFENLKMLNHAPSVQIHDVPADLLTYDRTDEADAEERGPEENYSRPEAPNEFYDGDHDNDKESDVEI
T2 sequence (Q9Y618 389-480 partner limits assumed): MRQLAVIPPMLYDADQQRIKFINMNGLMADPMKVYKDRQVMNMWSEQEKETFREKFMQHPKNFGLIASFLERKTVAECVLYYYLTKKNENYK

[3] = target: T3, HDAC1 (Homo sapiens, UniProt Q13547); assay: as above; assay type: biochemical; conditions: for HDAC1 dose-response data (relative enzyme activity), Fig. 6 + S. Fig. 10: duplicate columns
T3 construct: HDAC1 (full length, C-terminal His tag, C-terminal FLAG tag, BPS Bioscience, cat. #: 50051); FLAG (C); purchased BPS Bioscience 50051
T3 sequence (Q13547 whole entry): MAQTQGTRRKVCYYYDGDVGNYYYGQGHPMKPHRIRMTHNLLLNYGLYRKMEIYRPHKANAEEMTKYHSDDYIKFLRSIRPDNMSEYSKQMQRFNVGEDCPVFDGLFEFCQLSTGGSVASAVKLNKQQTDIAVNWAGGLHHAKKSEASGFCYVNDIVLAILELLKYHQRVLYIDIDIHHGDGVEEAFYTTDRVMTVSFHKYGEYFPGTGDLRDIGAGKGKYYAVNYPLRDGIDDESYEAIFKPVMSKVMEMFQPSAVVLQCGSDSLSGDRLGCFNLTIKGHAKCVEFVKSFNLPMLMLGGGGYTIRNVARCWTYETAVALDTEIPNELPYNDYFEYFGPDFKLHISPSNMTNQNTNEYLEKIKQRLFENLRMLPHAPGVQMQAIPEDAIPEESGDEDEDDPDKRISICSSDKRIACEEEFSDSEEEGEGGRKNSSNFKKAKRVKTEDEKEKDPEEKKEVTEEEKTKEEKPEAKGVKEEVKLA

[4] = target: T4, HDAC2 (Homo sapiens, UniProt Q92769); assay: Recombinant HDAC µSPOT microarray binding assay;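 note: Cellulose-bound peptide spots on slides incubated with six HDAC enzyme concentrations, binding intensity read, four-parameter variable-slope fit, EC50 is enzyme concentration giving half-maximal binding, in HEPES buffer pH 7.4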
T4 construct: HDAC2 (full length, C-terminal His tag, BPS Bioscience, cat. #: 50002); purchased BPS Bioscience 50002
T4 sequence (Q92769 whole entry): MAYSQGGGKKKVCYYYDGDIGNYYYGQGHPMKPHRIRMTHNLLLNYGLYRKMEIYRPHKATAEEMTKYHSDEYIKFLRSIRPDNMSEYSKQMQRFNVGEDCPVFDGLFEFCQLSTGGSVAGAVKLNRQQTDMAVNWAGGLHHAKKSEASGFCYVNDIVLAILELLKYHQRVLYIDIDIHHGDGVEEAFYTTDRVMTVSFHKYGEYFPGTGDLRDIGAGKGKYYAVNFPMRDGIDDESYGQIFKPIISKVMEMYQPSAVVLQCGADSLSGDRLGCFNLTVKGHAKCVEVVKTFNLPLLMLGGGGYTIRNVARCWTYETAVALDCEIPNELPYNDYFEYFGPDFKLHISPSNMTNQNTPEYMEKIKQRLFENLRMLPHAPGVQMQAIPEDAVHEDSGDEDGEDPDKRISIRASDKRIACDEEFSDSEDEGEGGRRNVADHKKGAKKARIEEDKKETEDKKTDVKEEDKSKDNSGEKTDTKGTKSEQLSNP
Method: Experiments were performed twice, data were obtained with Array Analyze software (Active Motif), and data analysis and representation were performed with the GraphPad Prism 7 software. Outliers were curated manually and data were fitted to nonlinear regression [log(agonist) vs. response—variable slope (four parameters)]. […] Non-sigmoidal curves were denoted as not determined (N.D.) The pEC50 values were determined as the concentration of HDAC enzyme required for half-maximal binding signal.

[5] = log[inhibitor(M)] -10,5850266520292*, whole line marked with asterisks

## CC[C@H](C)[C@H](NC(=O)[C@H](CCC(=O)O)NC(=O)[C@H](CCCNC(=N)N)NC(=O)[C@H](CO)NC(=O)[C@@H](NC(=O)[C@@H](NC(=O)[C@@H](NC(=O)[C@H](CO)NC(=O)[C@H](CCCNC(=N)N)NC(=O)[C@H](CCCCCC(=O)NO)NC(=O)[C@H](CC(N)=O)NC(=O)[C@H](Cc1ccc(O)cc1)NC(=O)[C@H](Cc1c[nH]cn1)NC(C)=O)[C@@H](C)O)[C@@H](C)CC)[C@@H](C)O)C(=O)N[C@@H](CCC(N)=O)C(=O)N[C@H](C(=O)N[C@@H](C)C(=O)N[C@@H](Cc1c[nH]c2ccccc12)C(N)=O)[C@@H](C)O [12a] (Ac-HYN[Asu](NHOH)RSTITSREIQTAW-NH2)
[1]; Inhibitor conc [M] -5
  HDAC8 dose-response data (relative enzyme activity), Fig. 6 + S. Fig. 10: 13.2204 and 13.7487
[1]; Inhibitor conc [M] -5.69897
  HDAC8 dose-response data (relative enzyme activity), Fig. 6 + S. Fig. 10: 34.8849 and 37.2156
[1]; Inhibitor conc [M] -6.39794
  HDAC8 dose-response data (relative enzyme activity), Fig. 6 + S. Fig. 10: 67.169 and 68.3219
[2]
  Ki: 10.6 ± 0.1 nM
[2]; log[inhibitor(M)] -4.30103
  HDAC3 dose-response data (relative enzyme activity), Fig. 6 + S. Fig. 10: 0.7368 and 0.5682
[2]; log[inhibitor(M)] -5
  HDAC3 dose-response data (relative enzyme activity), Fig. 6 + S. Fig. 10: 1.408 and 1.481
[2]; log[inhibitor(M)] -5.69897
  HDAC3 dose-response data (relative enzyme activity), Fig. 6 + S. Fig. 10: 5.267 and 4.363
[2]; log[inhibitor(M)] -6.39794
  HDAC3 dose-response data (relative enzyme activity), Fig. 6 + S. Fig. 10: 16.4324 and 13.9407
[2]; log[inhibitor(M)] -7.09691
  HDAC3 dose-response data (relative enzyme activity), Fig. 6 + S. Fig. 10: 38.5352 and 35.6199
[2]; log[inhibitor(M)] -7.79588
  HDAC3 dose-response data (relative enzyme activity), Fig. 6 + S. Fig. 10: 73.2464 and 64.9902
[2]; log[inhibitor(M)] -8.49485
  HDAC3 dose-response data (relative enzyme activity), Fig. 6 + S. Fig. 10: 93.6652 and 87.0389
[2]; log[inhibitor(M)] -9.19382
  HDAC3 dose-response data (relative enzyme activity), Fig. 6 + S. Fig. 10: 96.2351 and 93.241
[2]; log[inhibitor(M)] -9.89279
  HDAC3 dose-response data (relative enzyme activity), Fig. 6 + S. Fig. 10: 95.5729 and 96.0845
[2]; [5]
  HDAC3 dose-response data (relative enzyme activity), Fig. 6 + S. Fig. 10: 103,997369* and 102,157851*
[2]; resynthesized peptides, from Ki
  selectivity for HDAC3 vs. HDACs 1 and 2: ~ 2 fold
[3]
  Ki: 27.1 ± 0.1 nM
[3]; log[inhibitor(M)] -4.30103
  HDAC1 dose-response data (relative enzyme activity), Fig. 6 + S. Fig. 10: 0.9347 and 0.662
[3]; log[inhibitor(M)] -5
  HDAC1 dose-response data (relative enzyme activity), Fig. 6 + S. Fig. 10: 2.038 and 1.878
[3]; log[inhibitor(M)] -5.69897
  HDAC1 dose-response data (relative enzyme activity), Fig. 6 + S. Fig. 10: 7.98 and 7.034
[3]; log[inhibitor(M)] -6.39794
  HDAC1 dose-response data (relative enzyme activity), Fig. 6 + S. Fig. 10: 27.0557 and 22.8999
[3]; log[inhibitor(M)] -7.09691
  HDAC1 dose-response data (relative enzyme activity), Fig. 6 + S. Fig. 10: 60.7171 and 55.9643
[3]; log[inhibitor(M)] -7.79588
  HDAC1 dose-response data (relative enzyme activity), Fig. 6 + S. Fig. 10: 89.3741 and 84.8138
[3]; log[inhibitor(M)] -8.49485
  HDAC1 dose-response data (relative enzyme activity), Fig. 6 + S. Fig. 10: 97.3199 and 95.6638
[3]; log[inhibitor(M)] -9.19382
  HDAC1 dose-response data (relative enzyme activity), Fig. 6 + S. Fig. 10: 101.477 and 97.552
[3]; log[inhibitor(M)] -9.89279
  HDAC1 dose-response data (relative enzyme activity), Fig. 6 + S. Fig. 10: 101.081 and 96.9441
[3]; [5]
  HDAC1 dose-response data (relative enzyme activity), Fig. 6 + S. Fig. 10: 100,220716* and 99,6623992*
[4]
  EC50: > 25.1 nM
